In PubChem BioAssay (NCI) one finds GI50 and TGI data, which are given here for 21 molecules.

Among the test systems are T-47D breast; PC-3 prostate; HS 578T breast; MDA-N; DLD-1 colon; DMS 114 small cell lung; SNB-78 CNS; LXFL 529 NSCLC.
Holding throughout (assay): DTP human tumour cell line panel, 48 h

Structures are written as SMILES. Values joined by “and” are separate entries in the source; they are usually repeats but may differ in a detail not shown here. Identical values can stand only once.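 1) Cells in 96-well plates. 2) Compound, 48 h, 5 concentrations. 3) Linear interpolation between surrounding doses. 4) Unreached endpoint = highest concentration. GI50 is the concentration that inhibits growth by half. Definition used: TGI = concentration required for complete inhibition of growth.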

As a reminder, the GI50 is the concentration at which growth is held to half of that of the control. For orientation: TGI means the concentration at which net growth stops. A higher TGI goes with lower sensitivity of the cells. Turning to `CC(=O)OCC1OC(O[C@@H]2C[C@H]3C(C)(C)[C@H](OC(C)=O)CC[C@]3(C)[C@H]3CC[C@@H]4[C@]5(CC[C@@]4(C)[C@@]32C)O[C@@H]([C@H](O)C(C)(C)O)C[C@@H]5C)C(O)C(O)C1O` (some centres undefined), the GI50 in the assay on T-47D breast is 5.63 µM; in the assay on PC-3 prostate, 3.84 µM; in the assay on HS 578T breast, 9.3 µM; in the assay on MDA-N it was 7.08 µM. Also, the TGI in the assay on T-47D breast is 18.4 µM; in the assay with PC-3 prostate, 14.3 µM; with HS 578T breast, 25.4 µM; with MDA-N it was 20.1 µM.

With `O=C(O)c1c(Cl)c(Cl)c(Cl)c(Cl)c1-c1c2cc(I)c(=O)c(I)c-2oc2c(I)c(O)c(I)cc12`, the GI50 in the assay on T-47D breast is 29.4 µM; in the assay with PC-3 prostate, 39.8 µM and 42.3 µM; with HS 578T breast, 35.7 µM and 33 µM. Moreover, the TGI in the assay with T-47D breast was 78.2 µM; in the assay with PC-3 prostate, 89.3 µM; with HS 578T breast, 83.7 µM.

For the molecule `COc1cc(C(=O)c2c(-c3ccccc3)oc3ccccc23)cc(OC)c1O`, the GI50 in the assay on T-47D breast was 2.14 µM; with PC-3 prostate, 3.47 µM; in the assay with HS 578T breast, 0.898 µM. Also, the TGI worked out at 31.8 µM with T-47D breast, 15.7 µM in the assay on PC-3 prostate and 8.47 µM in the assay on HS 578T breast.

On to `O=C(/C=C/c1cccs1)Nc1ncc(Cc2ccccc2F)s1`, for which the GI50 in the assay with T-47D breast was 0.404 µM; in the assay on PC-3 prostate, 0.261 µM; in the assay on HS 578T breast, 0.27 µM. For the same molecule, the TGI in the assay on T-47D breast, with PC-3 prostate and in the assay with HS 578T breast was over 100 µM throughout.

With `Nc1ccccc1C#Cc1ccccc1C#CCCCCO`, the GI50 in the assay on T-47D breast is 30.3 µM; in the assay on PC-3 prostate it was 27.8 µM; in the assay with HS 578T breast, 35.8 µM. In addition, the TGI in the assay with T-47D breast is over 100 µM; in the assay on PC-3 prostate, 99.4 µM; with HS 578T breast, over 100 µM.

Take `C=C(C)[C@@H]1CC[C@]2(C#N)CC[C@]3(C)[C@H](CC[C@@H]4[C@@]5(C)CCCNC(C)(C)[C@@H]5CC[C@]43C)[C@@H]12`: the results for the GI50 with T-47D breast, in the assay with PC-3 prostate and with HS 578T breast were 1.76 µM, 2.7 µM and 2.01 µM, respectively. The TGI with T-47D breast was 4.05 µM; with PC-3 prostate, 10.7 µM; with HS 578T breast it was 4.85 µM.

Turning to `COc1ccc(CNc2cnc3cc(N)ccc3n2)cc1OC`, the TGI with DLD-1 colon and in the assay with DMS 114 small cell lung was over 100 µM in each case.

`CCOC(=O)c1cc2cc([N+](=O)[O-])ccc2oc1=O`: the concentration for total growth inhibition (TGI) with T-47D breast, with PC-3 prostate, with HS 578T breast and with MDA-N was over 100 µM in each case.

On to `O=C(N/N=C\c1cc(Cl)ccc1O)N/N=C/c1cc(Cl)ccc1O`, for which the GI50 was 2.32 µM in the assay on T-47D breast, 2.96 µM with PC-3 prostate and 0.643 µM in the assay on HS 578T breast. The TGI with T-47D breast, with PC-3 prostate and in the assay with HS 578T breast was over 100 µM throughout.

On to `CC1=NN(C(=O)Cc2ccccc2)C(=O)/C1=C\c1cccc(O)c1`, for which the TGI in the assay on DLD-1 colon, in the assay with DMS 114 small cell lung and with SNB-78 CNS was over 100 µM throughout.

As to `COc1ccccc1OCC(O)CO` (centres undefined), the GI50 in the assay on T-47D breast, with PC-3 prostate and in the assay on HS 578T breast was over 100 µM throughout. The TGI in the assay with T-47D breast, with PC-3 prostate and in the assay on HS 578T breast was over 100 µM throughout.

For `NC(=O)Cn1c(=O)[nH]c(=O)c2[nH]cnc21`, the TGI in the assay on LXFL 529 NSCLC and in the assay on DMS 114 small cell lung was over 100 µM in each case.

Consider `O=c1c2c(=NCCCN3CCCC3)cc3c(=O)n(CCCN4CCCC4)c(=O)c4c(NCCCN5CCCC5)cc(c(O)n1CCCN1CCCC1)c2c4-3`, for which the GI50 was 2.89 µM with T-47D breast, 3.66 µM with PC-3 prostate and 2.67 µM in the assay on HS 578T breast. Besides, the values for the TGI with T-47D breast, in the assay on PC-3 prostate and in the assay with HS 578T breast were 18.1 µM, 36.7 µM and 9.63 µM, respectively.

Consider `Cn1cc(/C=C2\C(=O)Nc3cccnc32)c2ccccc21`, for which the GI50 in the assay with T-47D breast was over 17.1 µM; in the assay with PC-3 prostate it was 22.9 µM; in the assay on HS 578T breast it was 8.58 µM. In addition, the TGI with T-47D breast, in the assay with PC-3 prostate and in the assay on HS 578T breast was over 25 µM in each case.

As for `C/C(=N\n1c(N)c(C#N)c(-c2ccc(Cl)cc2)c(C#N)c1=O)c1cccnc1`, the GI50 in the assay on T-47D breast, with PC-3 prostate and in the assay on HS 578T breast was over 100 µM each time. The TGI with T-47D breast, with PC-3 prostate and in the assay with HS 578T breast was over 100 µM in each case.

Turning to `NC(=NC1C2CC3CC(C2)CC1C3)Nc1ccc(I)cc1` (centres undefined), in the assay with PC-3 prostate, the GI50 was 3.14 µM and the TGI was found to be 12.2 µM. For the same molecule, in the assay with HS 578T breast, the GI50 is 4.65 µM and the TGI is 25.2 µM.

In the case of `CCN(CC)c1ccc(/C=N\NC(=O)c2cccc(Nc3ccnc(C(F)(F)F)c3)c2)c(O)c1`, the GI50 was 0.485 µM with T-47D breast, 0.646 µM in the assay on PC-3 prostate and 0.374 µM in the assay with HS 578T breast. The figures for the TGI with T-47D breast, in the assay on PC-3 prostate and in the assay on HS 578T breast were over 100 µM, over 100 µM and 11.6 µM, respectively.

As to `NC(=O)c1ccc(-c2c3ccccc3cc3c2ccc2ccccc23)cc1`, the GI50 in the assay with T-47D breast is 3.19 µM; with PC-3 prostate it was 4.88 µM; in the assay on HS 578T breast, 2 µM. Further, the results for the total growth inhibition concentration (TGI) with T-47D breast, in the assay on PC-3 prostate and with HS 578T breast were over 100 µM, 24.5 µM and 7.08 µM, respectively.

As to `CC(C)(C)c1ccc(C(O)(c2ccc(C(C)(C)C)cc2)c2ccc(C(C)(C)C)cc2)cc1`, the TGI in the assay with T-47D breast, in the assay on PC-3 prostate, in the assay with HS 578T breast and in the assay with MDA-N was over 100 µM in each case.

Regarding `Fc1ccc(-c2c(-c3ccncc3)n(CCN3CCOCC3)c3cccnc23)cc1`, the GI50 with T-47D breast, with PC-3 prostate and in the assay with HS 578T breast was over 25 µM each time. Also, the TGI with T-47D breast, with PC-3 prostate and with HS 578T breast was over 25 µM each time.

With `C=C1C(=O)O[C@H]2[C@H](OC(C)=O)[C@@H](C)CCC/C(C)=C/CC[C@]3(CO3)[C@H](O)C[C@@H]12`, the GI50 in the assay with T-47D breast is 2.8 µM; with HS 578T breast, 14.4 µM. Moreover, the figures for the TGI with T-47D breast and in the assay with HS 578T breast were 9.88 µM and 35.3 µM, respectively.
